How the values were obtained:
[1] = test system: disease animal model of fibromyalgia; test: Antagonism by 5-HT2C receptor antagonist SB242084 of the action of lorcaserin on reserpine-lowered muscle tenderness threshold; type: in vivo, Sprague-Dawley rats
Description: Thirty male Sprague-Dawley rats (Japan SLC) were used. […] The other 6 rats were not administered with reserpine and provided for the experiment as a healthy control. The drug efficacy was evaluated 5 days after the final administration of reserpine.
Twenty four reserpine-administered rats were divided into four groups (n=6/group), and the drug was administered to the respective groups in the following manner.
Group 1: 10% β cyclodextrin (vehicle of SB242084)+distilled water (vehicle of lorcaserin)
Group 2: 10% β cyclodextrin+lorcaserin at 3 mg/kg
Group 3: SB242084 at 0.1 mg/kg+lorcaserin at 3 mg/kg
Group 4: SB242084 at 1 mg/kg+lorcaserin at 3 mg/kg SB242084 or the vehicle thereof was administered by intraperitoneal administration, and lorcaserin or the vehicle thereof was orally administered. […] The muscle tenderness threshold was measured 60 minutes after lorcaserin or the vehicle thereof was administered. For the 6 healthy rats, only the muscle tenderness threshold was measured without administering the drug.
All measured values were indicated as an average±standard error. […] A significance level (P) less than 5% was determined as statistical significance (P<0.001 was indicated as ### in the drawing). […] A significance level (P) less than 5% was determined as statistical significance (P<0.001 was indicated as *** in the drawing).

[2] = test system: disease animal model of fibromyalgia; test: Effect of test drug on lowering of muscle tenderness threshold induced by repeated reserpine administration; type: in vivo, Sprague-Dawley rats; details: for effect on the lowering of the muscle tenderness threshold induced by reserpine: male rats; for statistical significance of the effect on muscle tenderness threshold vs vehicle: two way ANOVA and Bonferroni
Description: (§1) The muscle tenderness threshold was measured according to the method of Schafers et al (Schafers M et al, Pain, 104, 579-588, 2003). A pressure stimulus gradually increasing up to 250 g was applied to the gastrocnemius of the right rear foot of the rat. […] The measurement was performed for three times for each point in time, and the average thereof was taken as a measured value. The cutaneous nociception threshold was measured according to the method of Chaplan et al (Chaplan et al., J Neurosci Methods, 53, 55-63, 1994). The measurement was performed using a series of von Frey filaments differing in thickness, which made it possible to apply a constant pressure. The rats were adapted to a cage for measurement having a wire mesh bottom, and then von Frey filaments (0.42 g, 0.74 g, 1.2 g, 2.1 g, 3.5 g, 6.0 g, 9.3 g, and 15.8 g) were applied to the plantar surface of a right rear foot of the rat until the withdrawal response was caused in the right rear foot or until 6 seconds elapsed without the response. The von Frey filament was applied using an up and down method. That is, a filament having about a medium thickness was applied initially, and when the withdrawal response was observed, a filament having a thickness which is one level lower than the initial filament was applied, and when the response was not observed, a filament having a thickness which is one level higher than the initial filament was applied. The cutaneous nociception threshold at the respective points in time was calculated as a threshold (g) of a foot withdrawal response by using a calculation formula reported by Chaplan et al (Chaplan et al. described above). The influence of reserpine on the muscle tenderness threshold and the threshold of cutaneous nociception was examined according to the following protocol. 24 rats were used for male and female rats respectively. The muscle tenderness threshold and the cutaneous nociception threshold before the reserpine administration (base line) were measured, and then the rats were assigned to any of a vehicle (0.5% aqueous acetic acid) group, a 0.1 mg/kg reserpine group, a 0.3 mg/kg group, and a 1 mg/kg group based on the dose of reserpine (6 rats per group). A vehicle or reserpine was subcutaneously administered to the back of rats of the respective groups once a day for three days. The volume of the vehicle or reserpine was set to 1 ml per a weight of a rat of 1 kg for all groups. On the first, third, fifth, seventh, tenth, fourteenth, and twenty-first days after the final administration of the vehicle or reserpine, the muscle tenderness threshold and the cutaneous nociception threshold were measured for the respective rats.
Male Sprague-Dawley rats (Japan SLC, Hamamatsu, Japan) were used. Thirty rats were used for each drug. As shown in Reference Example 1, reserpine was repeatedly administered at 1 mg/kg once a day for 3 days for 24 rats, thereby causing the lowering of the muscle tenderness threshold and the cutaneous nociception threshold. The other 6 rats were not administered with reserpine and provided for the experiment as a healthy control.
The drug efficacy was evaluated 5 days after the final administration of reserpine for all groups.
In evaluating the respective test drugs (5-HT2C receptor agonists), the muscle tenderness threshold of the rats (24 reserpine-administered rats and 6 healthy rats) before the administration of the test drug was initially measured. The 24 reserpine-administered rats were assigned to 4 groups according to the dose of the test drug. For YM348 or a vehicle thereof, the muscle tenderness threshold was measured 30, 60, and 120 minutes after the administration. For lorcaserin or a vehicle thereof, the muscle tenderness threshold was measured 60, 120, and 240 minutes after the administration. For vabicaserin or a vehicle thereof, the muscle tenderness threshold was measured 30, 60, 120, and 240 minutes after the administration. […]

[3] = test system: disease animal model of fibromyalgia; test: Effect of drug on reserpine-induced lowering of cutaneous nociception threshold; type: in vivo, Sprague-Dawley rats; details: 5 days after final reserpine; up to a dose of 10 mg/kg
Description: The cutaneous nociception threshold was measured according to the method of Chaplan et al (Chaplan et al., J Neurosci Methods, 53, 55-63, 1994). The measurement was performed using a series of von Frey filaments differing in thickness, which made it possible to apply a constant pressure. The rats were adapted to a cage for measurement having a wire mesh bottom, and then von Frey filaments (0.42 g, 0.74 g, 1.2 g, 2.1 g, 3.5 g, 6.0 g, 9.3 g, and 15.8 g) were applied to the plantar surface of a right rear foot of the rat until the withdrawal response was caused in the right rear foot or until 6 seconds elapsed without the response. The von Frey filament was applied using an up and down method. […] The cutaneous nociception threshold at the respective points in time was calculated as a threshold (g) of a foot withdrawal response by using a calculation formula reported by Chaplan et al (Chaplan et al. described above).
In addition, 5 days after the final administration of reserpine, the effect of diclofenac which is a non-steroidal anti-inflammatory drug on the reserpine-induced lowering of the muscle tenderness threshold and the lowering of cutaneous nociception threshold was measured.

[4] = test system: patients with fibromyalgia; details: cited from earlier work; for score of pain symptoms of patients with fibromyalgia compared to a placebo group: Non-Patent Documents 7 to 9; for effectiveness for treating patients with fibromyalgia: literature (Yunus 1989; Goldenberg 1986)
[5] = test system: Male and female Sprague-Dawley rats; test: Influence of repeated reserpine administration on muscle tenderness threshold; type: in vivo; details: for time after final administration for which muscle tenderness threshold was statistically significantly lower than vehicle: 1 mg/kg group
Description: (§2) Male and female Sprague-Dawley rats (Japan SLC, Hamamatsu, Japan) were used.
as §1, with “The influence of reserpine on the muscle tenderness threshold and the threshold of cutaneous nociception was examined according to the following protocol. 24 rats were used for male and female rats respectively.” left out, “A vehicle or reserpine was subcutaneously administered to the back of rats of the respective groups once a day for three days. The volume of the vehicle or reserpine was set to 1 ml per a weight of a rat of 1 kg for all groups.” left out
(§3) All measured values were indicated as an average±standard error. The statistical significant difference in the measured value at the respective points in time between the reserpine-administered group and the vehicle-administered group was verified by two way ANOVA and a Bonferroni method. A significance level (P) less than 5% was determined as statistical significance (P<0.05 was indicated as * in the drawings).

[6] = test system: Male and female Sprague-Dawley rats; test: Influence of repeated reserpine administration on cutaneous nociception threshold (von Frey); type: in vivo; details: for time after final administration for which cutaneous nociception threshold was statistically significantly lower than vehicle: 1 mg/kg group
Description: as §2
as §1, with “The influence of reserpine on the muscle tenderness threshold and the threshold of cutaneous nociception was examined according to the following protocol. 24 rats were used for male and female rats respectively.” left out, “A vehicle or reserpine was subcutaneously administered to the back of rats of the respective groups once a day for three days. The volume of the vehicle or reserpine was set to 1 ml per a weight of a rat of 1 kg for all groups.” left out
as §3

Male Sprague-Dawley rats = test: Forced swimming test after repeated reserpine administration (immobility time); type: in vivo; details: 1 mg/kg s.c. once a day for 3 days
Description: Male Sprague-Dawley rats (7-week old, Japan SLC, Hamamatsu, Japan) were used as animals. A forced swimming test was performed by modifying the method of Porsolt (1977) et al in the following manner. Soft wires including a magnet (a diameter of 1 mm and a length of 3 mm) were mounted on both the forelimbs of the animal, and the animals were caused to swim one by one in a cylindrical plastic water tank (a diameter of 20 cm and a height of 45 cm) filled with water (24±1° C.) up to 30 cm depth. […] Each forced swimming test includes a pretest session (15 minutes of swimming) and a test session (5 minutes of swimming) 24 hours after the pretest session, and the immobility time was measured in the test session. […] All of the measured values were indicated as an average±standard error. The statistical significant difference in the measured value at the respective test schedules between the reserpine-administered group and the vehicle-administered group was verified by a Student's t-test. A significance level (P) less than 5% was determined as statistical significance (P<0.05 was indicated as * in the drawings).

[7] = 0.1, 0.3, 1 mg/kg s.c. once a day for three days, male and female rats, two way ANOVA

With Cc1cc2c(cc1Cl)N(C(=O)Nc1ccc(Oc3cccnc3C)nc1)CC2 [SB242084] the “antagonistic action against the action of lorcaserin on muscle tenderness threshold” value ([1]; SB242084 0.1 and 1 mg/kg i.p. 15 min before lorcaserin 3 mg/kg oral, 60 min, Dunnett's test) was “statistically significant antagonistic action in a dose dependent manner”.
In the case of CCc1cc2c(ccc3cnn(C[C@H](C)N)c32)o1 [YM348, (S)-2-(7-ethyl-1H-furo[2,3-g]indazol-1-yl)-1-methylethylamine], the “effect on the lowering of the muscle tenderness threshold induced by reserpine” value ([2]; 5 days after final reserpine (1 mg/kg s.c. x3 days), oral 0.03, 0.1, 0.3 mg/kg, 30, 60, 120 min after administration) is reported as “restored the lowering of the muscle tenderness threshold induced by reserpine in a dose dependent manner” and the “statistical significance of the effect on muscle tenderness threshold vs vehicle” value (shortened to “statistical significance … vs vehicle”) ([2]; oral, at a dose of 0.1 mg/kg or 0.3 mg/kg) is reported as “statistically significant”.
For O=C(O)Cc1ccccc1Nc1c(Cl)cccc1Cl [diclofenac], the “effect on the reserpine-induced lowering of cutaneous nociception threshold” value [3] was “not restored” and the “effect on the reserpine-induced lowering of the muscle tenderness threshold” value ([2]; 5 days after final reserpine, up to a dose of 10 mg/kg) was “not restored”.
In the case of CNCC[C@H](Oc1cccc2ccccc12)c1cccs1 [duloxetine], the “score of pain symptoms of patients with fibromyalgia compared to a placebo group” value [4] is listed as “statistically significantly reduces the score of pain symptoms”.
For CC(C)Cc1ccc(C(C)C(=O)O)cc1 (stereo not drawn) [ibuprofen], the “effectiveness for treating patients with fibromyalgia” value [4] is given as “not significantly effective”.
In the case of C[C@H]1CNCCc2ccc(Cl)cc21.Cl [lorcaserin, (1R)-8-chloro-1-methyl-2,3,4,5-tetrahydro-1H-3-benzazepine], the “effect on the lowering of the muscle tenderness threshold induced by reserpine vs vehicle group (v+v)” value ([1]; lorcaserin 3 mg/kg oral + 10% β cyclodextrin i.p., 60 min after administration, Student's t-test) is reported as “statistically significantly restored the lowering of the muscle tenderness threshold induced by reserpine”, the “effect on the lowering of the muscle tenderness threshold induced by reserpine” value ([2]; 5 days after final reserpine, oral 0.3, 1, 3 mg/kg, 60, 120, 240 min after administration) is reported as “restored the lowering of the muscle tenderness threshold induced by reserpine in a dose dependent manner” and the “statistical significance … vs vehicle” value ([2]; oral, at a dose of 1 mg/kg or 3 mg/kg) is reported as “statistically significant”.
In the case of COc1ccc2cc([C@H](C)C(=O)O)ccc2c1 [naproxen], the “effectiveness for treating patients with fibromyalgia” value [4] is listed as “not significantly effective”.
In the case of CC(C)C[C@H](CN)CC(=O)O [pregabalin], the “score of pain symptoms of patients with fibromyalgia compared to a placebo group” value [4] is given as “statistically significantly reduces the score of pain symptoms”.
For COC(=O)[C@H]1[C@H]2C[C@@H]3c4[nH]c5cc(OC)ccc5c4CCN3C[C@H]2C[C@@H](OC(=O)c2cc(OC)c(OC)c(OC)c2)[C@@H]1OC [reserpine], the “time after final administration for which muscle tenderness threshold was statistically significantly lower than vehicle” value ([5]; female rats) was 7 days, the “time after final administration for which muscle tenderness threshold was statistically significantly lower than vehicle” value ([5]; male rats) was 10 days and the “influence on muscle tenderness threshold” value ([5]; 1 mg/kg reserpine group) was “markedly lowered”. For the same compound, the “influence on muscle tenderness threshold” value [5, 7] was “significantly lowered the muscle tenderness threshold”, the “time after final administration for which cutaneous nociception threshold was statistically significantly lower than vehicle” value ([6]; female rats) was 14 days and the “time after final administration for which cutaneous nociception threshold was statistically significantly lower than vehicle” value ([6]; male rats) was 21 days. The “influence on cutaneous nociception threshold” value ([6]; 1 mg/kg reserpine group) was “markedly lowered”, the “influence on cutaneous nociception threshold” value [6, 7] was “significantly lowered the cutaneous nociception threshold” and the “increase in the immobility time in forced swimming test” value (Male Sprague-Dawley rats; first day after final administration (P=0.625)) was “not confirmed”. The “increase in the immobility time in forced swimming test” value (Male Sprague-Dawley rats; third, fifth, seventh and fourteenth days after final administration (P=0.0007, 0.004, <0.0001, 0.0008)) was “significant increase in the immobility time”.
In the case of Cl.c1cc2c3c(c1)[C@H]1CCC[C@H]1CN3CCNC2 [vabicaserin, (−)-(9aR,12aS)-4,5,6,7,9,9a,10,11,12,12a-decahydrocyclopenta[c][1,4]diazepino[6,7,1-ij]quinoline], the “statistical significance … vs vehicle” value ([2]; dorsal subcutaneous, at a dose of 1 mg/kg or 3 mg/kg) is reported as “statistically significant” and the “effect on the lowering of the muscle tenderness threshold induced by reserpine” value ([2]; 5 days after final reserpine, dorsal subcutaneous 0.3, 1, 3 mg/kg, 30, 60, 120, 240 min after administration) is reported as “restored the lowering of the muscle tenderness threshold induced by reserpine in a dose dependent manner”.

— patent publication US20120253036A1, “AGENT FOR TREATING FIBROMYALGIA” (priority 2009, published 2012)
